Assay results as given in patent US10045994B2, “Agents for treating multiple myeloma” (SERVICIO ANDALUZ DE SALUD, priority 2013, dated 2018).
“Also recorded” adds a separate entry of the source. Where two headings read alike, the source gives them in different places.

How the values were obtained:
[1] = tested on: CD45+ lymphocytes; assay: 7AAD viability of lymphocytes in primary bone marrow culture of myeloma patients; assay type: cell-based, human
Procedure: (§1) Finally, the authors of the present invention evaluated the toxicity of cannabinoid agent WIN 55,212-2, which was determined in terms of cell viability by means of two types of assays, one based on the drop in 3(4,5dimethyl-2-thiazoyl)-2,5-diphenyltetrazolic bromide (MTT), and another one based on the interaction of 7AAD. Primary cultures of mononuclear cells obtained from peripheral blood from healthy donors (CD34+ hematopoietic progenitors) and from bone marrow of patients suffering multiple myeloma (CD64+, granulocytes (B), CD45+, lymphocytes (C) and CD38+, plasma cells (D)) were used. […]
(§2) For the viability analysis by means of flow cytometry, the cells were treated with suitably labeled monoclonal antibodies for the identification of each of the cell types used. Once labeled; the cells were exposed for 15 min to 7AAD ([…]) to evaluate cell viability; the reading was performed in the cytometer and analyzed with the computer program adapted for the cytometer. At least 100,000 events were acquired, and the mean fluorescence intensity was obtained.
(§3) The authors of the present invention evaluated the toxicity of cannabinoid agent WIN 55,212-2, which was determined in terms of cell viability by means of two types of assays, one based on the drop in 3(4,5dimethyl-2-thiazoyl)-2,5-diphenyltetrazolic (MTT) bromide, and another one based on the interaction of the 7AAD. […]

[2] = tested on: myeloma cell line U266; assay: Cell viability by flow cytometry (7AAD labeling), U266; assay type: cell-based; details: U266, 7AAD flow cytometry, 48 h
Procedure: These same assays were repeated incubating the myeloma cell line U266 for a period of 48 hours with increasing concentrations of WIN 55,212-2 between 0.5 and 50 uM.
as §2
These same assays were repeated, incubating myeloma cell line U266 for a period of 48 hours with increasing concentrations of WIN 55,212-2 between 0.5 and 50 uM. Nevertheless, cell viability was determined by means of flow cytometry instead of by means of MTT metabolization.

[3] = tested on: CD64+ granulocytes (polymorphonuclear cells); assay: 7AAD viability of granulocytes in primary bone marrow culture of myeloma patients; assay type: cell-based, human; details: 0.5-50 micromol, 18 h
Procedure: as §1, §2, §3

[4] = tested on: CD34+ hematopoietic progenitors; assay: MTT cytotoxicity on CD34+ hematopoietic progenitors from healthy donors; assay type: cell-based, human; details: CD34+ hematopoietic progenitors of healthy donors, 0.5-50 micromol, 12 or 18 h
Procedure: as §1
The method for the determination of cell viability by means of the MTT assay is based on the capacity that viable cells have of metabolizing 3-(4,5-dimethylthiazol-2-yl)-2,5-diphenyltetrazol (MTT) bromide. The metabolic reduction of MTT due to the action of the mitochondrial enzyme, succinate dehydrogenase, gives rise to the insoluble and colored form called formazan, which can be quantified by means of spectrocolorimetry. […]
After incubation with cannabinoids, 10 microliters of MTT were added to each well and were incubated 2-4 hours in the same conditions. The reaction is subsequently stopped, the crystallized formazan is solubilized and optical density was determined at 450 nm in a plate spectrophotometer. […]

[5] = tested on: myeloma cell line U266; assay: MTT cell viability, myeloma cell line U266; assay type: cell-based; details: for cytotoxicity at 50 µM: Homo sapiens
Procedure: In order to determine the effect of the cannabinoid compound WIN 55,212-2, myeloma cell line U266 was incubated for a period of 48 and 96 hours with increasing concentrations of WIN 55,212-2 between 0.5 and 50 uM; cell viability was determined by means of the MTT metabolization. The MTT assay is based on the capacity of the mitochondrial enzyme, succinate dehydrogenase, of viable cells for transforming the tetrazolium salt MTT into a blue-colored product, MTT formazan, which is proportional to the number of living cells present. The mean proliferation values of the untreated control cell cultures were taken as 100%.
(§4) The method for the determination of cell viability by means of the MTT assay is based on the capacity that viable cells have of metabolizing 3-(4,5-dimethylthiazol-2-yl)-2,5-diphenyltetrazol (MTT) bromide. The metabolic reduction of MTT due to the action of the mitochondrial enzyme, succinate dehydrogenase, gives rise to the insoluble and colored form called formazan, which can be quantified by means of spectrocolorimetry. The amount of living cells is proportional to the optical density resulting.
(§5) After incubation with cannabinoids, 10 microliters of MTT were added to each well and were incubated 2-4 hours in the same conditions. The reaction is subsequently stopped, the crystallized formazan is solubilized and optical density was determined at 450 nm in a plate spectrophotometer. All the assays were performed in triplicate.
To determine the effect of cannabinoid compound WIN 55,212-2, myeloma cell line U266 was incubated for a period of 48 and 96 hours with increasing concentrations of WIN 55,212-2 between 0.5 and 50 uM; cell viability was determined by means of MTT metabolization. The MTT assay is based on the capacity of the mitochondrial enzyme, succinate dehydrogenase, of viable cells to transform tetrazolium salt MTT into a blue-colored product, formazan MTT, which is proportional to the number of living cells present. Mean proliferation values of untreated control cell cultures were taken as 100%.

[6] = tested on: multiple myeloma cell line MM1.S; assay: MTT cell viability, multiple myeloma cell line MM1.S; assay type: cell-based
Procedure: (§6) In this sense, in order to carry out these assays the authors incubated the myeloma cell line MM1.S at different concentrations with the cannabinoid agent WIN 55-212,2 for 48 and 96 hours, and cell viability was determined by means of MTT metabolization. Mean proliferation values of untreated control cell cultures were taken as 100%. The data corresponds to the means+/−the standard deviation of the triplicates of each of the 4 assays performed. […] Cell viability also drops after 96 hours of exposure to the drug at the same concentrations.
as §4, §5
as §6, with “incubated” for “incubated the”, “the means +/− the” for “the means+/−the”, “drug ay” for “drug at”

[7] = tested on: CD38+ plasma cells; assay: 7AAD viability of plasma cells in primary bone marrow culture of myeloma patients; assay type: cell-based, human
Procedure: Finally, the authors of the present invention evaluated the toxicity of cannabinoid agent WIN 55,212-2, which was determined in terms of cell viability by means of two types of assays, one based on the drop in 3(4,5dimethyl-2-thiazoyl)-2,5-diphenyltetrazolic bromide (MTT), and another one based on the interaction of 7AAD. Primary cultures of mononuclear cells obtained from peripheral blood from healthy donors (CD34+ hematopoietic progenitors) and from bone marrow of patients suffering multiple myeloma (CD64+, granulocytes (B), CD45+, lymphocytes (C) and CD38+, plasma cells (D)) were used.
The plasma cells, granulocytes and lymphocytes were obtained from bone marrow samples from patients with multiple myeloma after hypotonic lysis with ammonium chloride (0.16 M in 0.17 M Tris, pH 7.6) for 10 min at room temperature, for the purpose of removing the erythrocyte cell population. The cell suspension resulting from lysis, which only contains mononuclear cells, was seeded in multiwell plates at the same cell density as the progenitor cells using supplemented RPMI medium plus 20% fetal bovine serum.
The primary cultures were incubated in the presence and absence of the cannabinoid agent WIN 55,212-2 at different concentrations. […]
as §2, §3

Cc1c(C(=O)c2cccc3ccccc23)c2cccc3c2n1[C@H](CN1CCOCC1)CO3 [WIN 55,212-2, (R)-(+)-[2,3-Dihydro-5-methyl-3-(4-morpholinylmethyl)pyrrolo[1,2,3-de]-1,4 benzoxazin-6-yl]-1-naphtalenylmethanone]
loss of viability ([1]; 0.5-50 micromol, 12 or 18 h): only detected at the highest dose | drop in cell viability ([1]; 7AAD, 18 h, 50 uM): 40% | concentration from which a cytotoxic effect (significant drop in cell viability, p<0.05) is seen [2]: ≥ 10 µM | cell viability [3]: not affected | cell viability [4]: not affected | cytotoxicity at 50 µM ([5]; U-266, 48 h, read-out: inhibition of cell viability, U266, MTT, 48 h, 50 uM): ~60% | cytotoxicity at 50 µM ([5]; U-266, 96 h, read-out: inhibition (drop) of cell viability, U266, MTT, 96 h, 50 uM): ~80% | cell viability drops to ([5]; U266, MTT, 48 h, 10 uM and 20 uM, untreated control = 100%): 40% | inhibition of cell viability ([5]; U266, MTT, 48 h, between 10 uM and 20 uM): about 40% | sensitivity of cell line MM1.S compared with cell line U266 ([6]; 48 and 96 h): more sensitive | concentration after which cell viability noticeably dropped ([6]; MM1.S, 48 h): greater than 1 uM | cytotoxicity ([6]; MM1.S, 48 h, 10 uM, 20 uM and 50 uM): greater than 50% | cell viability after longer incubation ([6]; MM1.S, 96 h, same concentrations as at 48 h): also drops; also recorded: also affected | drop in cell viability at 96 h compared with 48 h ([6]; MM1.S, 96 h vs 48 h): lower than at short incubation times | cytotoxicity at 50 µM ([7]; Homo sapiens, 18 h, read-out: reduction of cell viability): > 80% | doses producing a drastic drop in cell viability ([7]; plasma cells, bone marrow primary culture, 12 or 18 h): greater than 10 uM | population of plasma cells after incubation ([7]; plasma cells, bone marrow primary culture, 18 h, 20 uM and 50 uM): drastically reduced
